Measured values taken from US6953779B2, “Melanocortin receptor antagonists and modulations of melanocortin receptor activity” (The Regents of the University of California, priority 1998, dated 2005).
Square brackets hold non-standard residues; d marks the D form. Peptide text beside a SMILES is read from it. * marks the point of attachment. Benzoyl(4-OMe) = COc1ccc(C(=O)*)cc1; d2Thi = N[C@H](Cc1cccs1)C(=O)O

Tests used:
[1] = test system: atypical MC receptor in Cos-7 cells; experiment: cAMP concentration-response to α-MSH in Cos-7 cells; format: cell-based
Procedure: (§1) Peptide concentration-response measurements are made in HEK-293 cells by quantifying cAMP levels using a [8-^3H]-CAMP kit from Amersham. Briefly, cells transfected with MC receptors, plated to confluency in 96-well tissue culture plates, are rinsed for 1 hr with 70% (vol/vol) L-15 medium containing 0.5% bovine serum albumin. […] Cellular debris was separated from extracted samples by centrifugation, 400 μL aliquots of the supernatant lyophilized, and total cAMP content quantified by isotope counting.
(§2) Concentration response measurements were made also as described in Example 2, but in Xenopus fibroblasts, COS-7, HEK-293, and Y1 cells.

[2] = biological target: T1, ACTH (MCR-2) receptor endogenous to murine Y1 adrenocortical cells (Mus musculus, UniProt Q64326); experiment: cAMP concentration-response to ACTH-(1-24) in Y1 cells; format: cell-based
T1 construct: the ACTH (MCR-2) receptor endogenous to murine Y1 adrenocortical cells; endogenous in cells; host or cells: murine Y1 adrenocortical cells
Procedure: as §1, §2

[3] = biological target: T2, MC receptors endogenous to Xenopus melanophores (Xenopus laevis, UniProt A0A1L8GF34); conditions: Quillan and Sadée 1997, cited from earlier work
T2 sequence (A0A1L8GF34 1-317): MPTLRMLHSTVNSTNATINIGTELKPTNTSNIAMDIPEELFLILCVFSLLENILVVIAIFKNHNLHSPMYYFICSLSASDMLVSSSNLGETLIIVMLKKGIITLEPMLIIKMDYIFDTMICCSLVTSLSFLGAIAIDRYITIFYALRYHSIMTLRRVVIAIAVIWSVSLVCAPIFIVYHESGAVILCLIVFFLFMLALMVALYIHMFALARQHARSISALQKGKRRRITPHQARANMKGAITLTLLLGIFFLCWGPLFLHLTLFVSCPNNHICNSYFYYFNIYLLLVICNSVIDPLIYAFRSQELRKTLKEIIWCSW

[4] = test system: heat-induced edema in the anesthetized rat's paw; experiment: Suppression of heat-induced edema in the anesthetized rat's paw (anti-inflammatory); format: in vivo
[5] = biological target: MCR-3 (Homo sapiens, UniProt P41968); conditions: Ollmann et al.; cited from earlier work
[6] = biological target: MCR-4 (Homo sapiens, UniProt P32245); conditions: Ollmann et al.; cited from earlier work
[7] = biological target: MCR-1 (Homo sapiens, UniProt Q01726); conditions: at concentrations up to 100 nM; Ollmann et al.; cited from earlier work
[8] = test system: B16-F1 mouse melanoma cells; conditions: Siegrist et al.; read-out: antiproliferative half-maximal effective concentration; cited from earlier work

T1 sequence (Q64326 whole entry): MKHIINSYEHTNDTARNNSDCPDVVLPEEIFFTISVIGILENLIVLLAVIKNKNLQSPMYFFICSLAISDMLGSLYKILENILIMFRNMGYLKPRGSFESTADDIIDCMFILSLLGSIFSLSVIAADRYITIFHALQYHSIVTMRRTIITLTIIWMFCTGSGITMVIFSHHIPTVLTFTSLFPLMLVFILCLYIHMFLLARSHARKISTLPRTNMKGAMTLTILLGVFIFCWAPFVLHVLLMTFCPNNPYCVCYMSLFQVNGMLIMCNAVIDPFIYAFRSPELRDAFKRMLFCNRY
T1 sequence (Q9D159 whole entry partner): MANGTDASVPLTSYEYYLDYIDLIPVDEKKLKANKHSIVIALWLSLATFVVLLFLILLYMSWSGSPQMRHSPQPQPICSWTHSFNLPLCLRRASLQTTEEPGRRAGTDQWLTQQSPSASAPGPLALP
Sequence of MCR-4 (P32245 whole entry): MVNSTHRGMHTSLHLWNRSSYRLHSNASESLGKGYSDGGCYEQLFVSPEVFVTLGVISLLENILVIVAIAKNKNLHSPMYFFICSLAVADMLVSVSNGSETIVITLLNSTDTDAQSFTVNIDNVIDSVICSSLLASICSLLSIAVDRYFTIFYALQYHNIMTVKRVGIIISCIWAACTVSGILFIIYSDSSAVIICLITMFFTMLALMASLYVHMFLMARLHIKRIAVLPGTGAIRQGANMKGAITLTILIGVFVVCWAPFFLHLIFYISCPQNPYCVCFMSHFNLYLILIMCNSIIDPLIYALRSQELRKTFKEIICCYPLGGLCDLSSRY
Sequence of MCR-3 (P41968 whole entry): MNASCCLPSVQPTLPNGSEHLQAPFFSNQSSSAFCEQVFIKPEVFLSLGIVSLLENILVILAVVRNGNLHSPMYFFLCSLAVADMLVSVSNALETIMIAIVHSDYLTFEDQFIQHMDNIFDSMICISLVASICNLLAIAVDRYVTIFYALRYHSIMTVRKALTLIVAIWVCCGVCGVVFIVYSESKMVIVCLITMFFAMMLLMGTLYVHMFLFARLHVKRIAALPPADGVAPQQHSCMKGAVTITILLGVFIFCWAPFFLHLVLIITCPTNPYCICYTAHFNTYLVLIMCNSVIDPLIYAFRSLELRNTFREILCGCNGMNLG
Sequence of MCR-1 (Q01726 whole entry): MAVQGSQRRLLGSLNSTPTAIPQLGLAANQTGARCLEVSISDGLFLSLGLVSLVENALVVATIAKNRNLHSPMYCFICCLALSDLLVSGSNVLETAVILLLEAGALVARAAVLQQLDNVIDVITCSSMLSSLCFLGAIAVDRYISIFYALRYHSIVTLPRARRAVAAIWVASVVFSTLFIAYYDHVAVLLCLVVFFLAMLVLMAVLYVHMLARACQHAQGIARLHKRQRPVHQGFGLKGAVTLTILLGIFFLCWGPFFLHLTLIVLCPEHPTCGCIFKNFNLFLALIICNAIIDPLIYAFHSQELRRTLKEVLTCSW

For α-MSH, the EC50 ([1]; read-out: EC50 of α-MSH for cAMP production) was about 80 nM and the “stimulating cAMP accumulation in Y1 cells” value ([2]; up to concentrations of 10 μM) was “not effective”.

For Dynorphin A(6-17), the antagonist activity [3] is listed as “inactive”.

For Dynorphin A(2-17) [reference compound], the IC50 ([3]; against 600 pM α-MSH) is listed as 190 nM and the anti-edema activity ([4]; in words) is listed as “at least twice more active”.

With `CC[C@H](C)[C@H](NC(=O)[C@H](CCCNC(=N)N)NC(=O)[C@H](CCCNC(=N)N)NC(=O)[C@H](CC(C)C)NC(=O)[C@H](Cc1ccccc1)NC(=O)CNC(=O)CNC(=O)[C@@H](N)Cc1ccc(O)cc1)C(=O)N[C@@H](CCCNC(=N)N)C(=O)N1CCC[C@H]1C(=O)N[C@@H](CCCCN)C(=O)N[C@@H](CC(C)C)C(=O)N[C@@H](CCCCN)C(N)=O` [dynorphin A(1-13)-NH2] the “shift of α-MSH EC50” value ([1]; 30 μM) was about 50 fold, the Kd ([1]; read-out: K4) was about 1000 nM and the “effect on basal or forskolin (3 μM) stimulated cAMP production” value ([2]; Y1 cells) was “did not significantly affect”. The “shift of the concentration-response curve of ACTH-(1-24) to the right” value ([2]; Y1 cells, 30 μM) was about 200 fold and the “estimated Kd” value ([2]; from shift in the ACTH concentration-response curve) was “submicromolar range”.

For “agouti-related protein (ARP): agouti-related protein cloned from non-epidermal tissues (SSRRCVRLHESCLGQQVPCCDPCATCYCRFFNAFCYCRKLGTAMNPCSRT; UniProt O00253 83-132, looked up)”, the “inhibition for MCR-3” value [5] is given as “dose dependent inhibition”, the “inhibition for MCR-4” value [6] is given as “dose dependent inhibition” and the “effect on MCR-1” value [7] is given as “little effect”.

With `CC[C@H](C)[C@H](NC(=O)[C@@H](Cc1cccs1)NC(=O)[C@H](C)NC(=O)[C@H](CC(C)C)NC(=O)[C@H](CCCCN)NC(=O)[C@H](CCCNC(=N)N)NC(=O)c1ccc(OC)cc1)C(=O)N[C@H](CC(C)C)C(N)=O` [S-165, p-anisoyl-Arg-Lys-Leu-Ala-D-Thi-Ile-D-Leu-NH2] ({Benzoyl(4-OMe)}-RKLA[d2Thi]I[dL]-NH2) the “Anti-Inflammatory ED50” value ([4]; i.v., suppression of heat-induced edema in the anesthetized rat's paw) was 0.046 (0.015-0.14) mg/kg.

B1: ASP: agouti-signaling protein, MCR antagonist elaborated by hair follicle melanocytes (protein, UniProt P42127 23-132, looked up)
Agouti-signaling protein: HLPPEEKLRDDRSLRSNSSVNLLDVPSVSIVALNKKSKQIGRKAAEKKRSSKKEASMKKVVRPRTPLSAPCVATRNSCKPPAPACCDPCASCQCRFFRSACSCRVLSLNC
In the case of B1, the EC50 [8] is given as 13 nM.
